The values that follow come from patent publication US20240082223A1, “DIHYDROFUROPYRIDINE DERIVATIVES AS RHO- KINASE INHIBITORS” (CHIESI FARMACEUTICI S.P.A., priority 2020, published 2024).

Common to all, as to assay type: biochemical
Assay [1] addresses T1, ROCK2 (Homo sapiens, UniProt O75116). Description: In vitro inhibitory activity assay ROCK2 (Method B, ADP-Glo, 200 μM ATP). Particulars: ATP 200 μM, read-out: Method B ROCK 2 (Ki). The protocol: (§1) In Vitro Inhibitory Activity Assay Description ROCK1 and ROCK2
(§2) The effectiveness of compounds of the present invention to inhibit Rho kinase activity can be determined in a 10 μl assay containing 40 mM Tris pH7.5, 20 mM MgCl2 0.1 mg/mL BSA, 50 μM DTT and 2.5 μM peptide substrate (Myelin Basic Protein) using an ADP-Glo kit (Promega). Compounds were dissolved in DMSO such that the final concentration of DMSO was 1% in the assay. All reactions/incubations are performed at 25° C. Compound (2 μL) and either Rho kinase 1 or 2 (4 μl) were mixed and incubated for 30 min. Reactions were initiated by addition of ATP (4 μL) such that the final concentration of ATP in the assay was 200 μM. After a 1 hour incubation 10111 of ADP-Glo Reagent was added and after a further 45 minute incubation 20 μL of Kinase Detection Buffer was added and the mixture incubated for a further 30 minutes. The luminescent signal was measured on a luminometer. […] Compounds were tested in dose-response format and the inhibition of kinase activity was calculated at each concentration of compound. To determine the IC50 (concentration of compound required to inhibit 50% of the enzyme activity) data were fit to a plot of % inhibition vs Log10 compound concentration using a sigmoidal fit with a variable slope and fixing the maximum to 100% and the minimum to 0%. To determine the Ki values the Cheng-Prusoff equation was utilized (Ki=IC50/(1[S]/Km).
In general terms: In ADP-Glo the light output rises with the ADP produced.

Assay [2] deals with T1, ROCK2. The experiment in a line: In vitro inhibitory activity assay ROCK2 (Method A, ADP-Glo, 10 μM ATP). Particulars: ATP 10 μM, read-out: Method A ROCK 2 (Ki). The protocol: (§3) In vitro inhibitory activity assay description ROCK1 and ROCK2
as §2, with “(2 uL)” for “(2 μL)”, “was 10” for “was 200”, “incubation […]” for “incubation 10111”, “45 minutes” for “45 minute”, “20 uL” for “20 μL”, “utilized (Ki=IC50/(1+[S]/Km).” for “utilized (Ki=IC50/(1[S]/Km).”

The target in assay [3] is T2, ROCK1 (Homo sapiens, UniProt Q13464). The experiment in a line: In vitro inhibitory activity assay ROCK1 (Method B, ADP-Glo, 200 μM ATP). Particulars: ATP 200 μM, read-out: Method B ROCK 1 (Ki). The procedure:
as §1, §2

In assay [4] the target is T2, ROCK1. The experiment in a line: In vitro inhibitory activity assay ROCK1 (Method A, ADP-Glo, 10 μM ATP). Particulars: ATP 10 μM, read-out: Method A ROCK 1 (Ki). The protocol:
as §3
as §2, with “(2 uL)” for “(2 μL)”, “was 10” for “was 200”, “incubation […]” for “incubation 10111”, “45 minutes” for “45 minute”, “20 uL” for “20 μL”, “utilized (Ki=IC50/(1+[S]/Km).” for “utilized (Ki=IC50/(1[S]/Km).”

In general, Ki refers to the dissociation constant of the complex between target and ligand, obtained from inhibition or displacement.

T1 sequence (O75116 whole entry): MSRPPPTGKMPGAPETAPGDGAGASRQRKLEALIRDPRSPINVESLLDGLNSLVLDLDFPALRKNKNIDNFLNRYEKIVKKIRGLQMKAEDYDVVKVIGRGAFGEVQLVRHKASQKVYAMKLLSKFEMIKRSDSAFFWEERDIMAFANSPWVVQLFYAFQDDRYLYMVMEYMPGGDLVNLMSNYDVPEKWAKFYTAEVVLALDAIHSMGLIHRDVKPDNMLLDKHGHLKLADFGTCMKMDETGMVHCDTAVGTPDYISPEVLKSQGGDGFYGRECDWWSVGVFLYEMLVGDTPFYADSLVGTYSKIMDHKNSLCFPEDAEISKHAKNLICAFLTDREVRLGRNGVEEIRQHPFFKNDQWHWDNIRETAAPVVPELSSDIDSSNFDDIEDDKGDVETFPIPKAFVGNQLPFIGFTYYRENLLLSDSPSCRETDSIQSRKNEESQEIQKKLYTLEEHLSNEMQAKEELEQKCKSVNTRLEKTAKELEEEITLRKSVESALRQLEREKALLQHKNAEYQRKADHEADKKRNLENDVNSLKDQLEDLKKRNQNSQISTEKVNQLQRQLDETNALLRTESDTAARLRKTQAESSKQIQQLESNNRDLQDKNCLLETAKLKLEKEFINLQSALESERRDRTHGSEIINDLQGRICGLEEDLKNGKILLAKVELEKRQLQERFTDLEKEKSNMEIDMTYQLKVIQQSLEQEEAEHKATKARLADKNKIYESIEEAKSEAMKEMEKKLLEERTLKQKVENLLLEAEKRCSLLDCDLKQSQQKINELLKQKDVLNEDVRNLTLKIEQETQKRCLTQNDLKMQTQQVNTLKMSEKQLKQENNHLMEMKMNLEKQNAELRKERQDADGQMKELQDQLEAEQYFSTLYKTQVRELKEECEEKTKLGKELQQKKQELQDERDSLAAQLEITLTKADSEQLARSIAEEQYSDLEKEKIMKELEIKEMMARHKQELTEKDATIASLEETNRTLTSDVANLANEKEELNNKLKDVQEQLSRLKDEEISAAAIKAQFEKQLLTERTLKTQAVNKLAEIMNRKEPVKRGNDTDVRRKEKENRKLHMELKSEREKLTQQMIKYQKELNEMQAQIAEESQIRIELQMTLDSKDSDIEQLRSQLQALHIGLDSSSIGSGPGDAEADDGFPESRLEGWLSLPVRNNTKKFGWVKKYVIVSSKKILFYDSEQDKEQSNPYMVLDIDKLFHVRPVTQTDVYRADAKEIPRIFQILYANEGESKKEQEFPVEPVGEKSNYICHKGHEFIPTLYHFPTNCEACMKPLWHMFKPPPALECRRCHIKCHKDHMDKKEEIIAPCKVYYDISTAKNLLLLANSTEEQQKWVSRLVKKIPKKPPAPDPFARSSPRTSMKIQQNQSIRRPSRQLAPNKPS
T2 sequence (Q13464 whole entry): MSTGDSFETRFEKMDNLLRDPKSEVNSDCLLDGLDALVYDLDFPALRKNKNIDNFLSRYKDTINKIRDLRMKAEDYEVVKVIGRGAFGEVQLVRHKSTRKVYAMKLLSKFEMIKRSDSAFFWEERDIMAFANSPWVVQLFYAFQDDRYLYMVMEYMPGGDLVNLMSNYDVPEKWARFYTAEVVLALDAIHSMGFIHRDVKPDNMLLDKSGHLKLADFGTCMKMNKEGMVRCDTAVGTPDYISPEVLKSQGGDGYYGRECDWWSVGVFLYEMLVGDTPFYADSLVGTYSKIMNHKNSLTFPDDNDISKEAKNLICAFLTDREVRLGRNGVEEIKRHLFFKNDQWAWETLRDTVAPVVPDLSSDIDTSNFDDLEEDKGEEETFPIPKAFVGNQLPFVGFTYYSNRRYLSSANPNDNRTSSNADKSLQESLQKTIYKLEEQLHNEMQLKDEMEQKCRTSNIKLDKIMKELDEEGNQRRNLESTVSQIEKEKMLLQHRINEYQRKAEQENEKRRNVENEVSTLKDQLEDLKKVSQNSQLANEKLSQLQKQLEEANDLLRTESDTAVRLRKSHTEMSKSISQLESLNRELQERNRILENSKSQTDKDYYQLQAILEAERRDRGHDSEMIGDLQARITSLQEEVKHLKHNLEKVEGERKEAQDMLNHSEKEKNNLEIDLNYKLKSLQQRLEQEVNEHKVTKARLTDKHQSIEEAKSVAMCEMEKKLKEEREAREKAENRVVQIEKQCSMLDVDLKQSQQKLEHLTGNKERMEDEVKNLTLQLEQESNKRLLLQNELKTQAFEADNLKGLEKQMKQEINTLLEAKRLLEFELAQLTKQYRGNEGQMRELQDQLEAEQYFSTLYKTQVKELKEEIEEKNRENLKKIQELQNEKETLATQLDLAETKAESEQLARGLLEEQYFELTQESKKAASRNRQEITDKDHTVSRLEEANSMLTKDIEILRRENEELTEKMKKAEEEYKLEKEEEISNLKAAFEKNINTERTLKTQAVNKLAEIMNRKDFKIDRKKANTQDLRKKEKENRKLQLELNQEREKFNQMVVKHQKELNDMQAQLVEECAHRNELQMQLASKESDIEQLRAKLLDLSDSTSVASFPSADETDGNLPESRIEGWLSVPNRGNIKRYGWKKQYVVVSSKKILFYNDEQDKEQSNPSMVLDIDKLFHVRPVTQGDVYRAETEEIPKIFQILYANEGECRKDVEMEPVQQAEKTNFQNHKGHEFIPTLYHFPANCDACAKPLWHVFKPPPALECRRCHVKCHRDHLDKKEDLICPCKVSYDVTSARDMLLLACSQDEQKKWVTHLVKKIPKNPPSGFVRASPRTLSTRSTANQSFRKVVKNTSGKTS

With `CN1CCC(n2ncc3cc(C(=O)Nc4cccc(CNc5ncc(-c6cn[nH]c6)c6c5CCO6)c4)ccc32)CC1` [Example 44, N-(3-(((7-(1H-pyrazol-4-yl)-2,3-dihydrofuro[3,2-c]pyridin-4-yl)amino)methyl)phenyl)-1-(1-methylpiperidin-4-yl)-1H-indazole-5-carboxamide], the Ki in assay [1], in assay [2], in assay [3] and in assay [4] was no more than 3 nM in each case.
Turning to `O=C(NCc1ccon1)c1cccc(CNc2ncc(-c3cn[nH]c3)c3c2CCO3)c1` [Example 13, 3-(((7-(1H-pyrazol-4-yl)-2,3-dihydrofuro[3,2-c]pyridin-4-yl)amino)methyl)-N-(isoxazol-3-ylmethyl)benzamide], the Ki in assay [1] was no more than 3 nM; in assay [3], 3 to 30 nM.
On the same counts, the results for `COCCNC(=O)c1cccc(CNc2ncc(-c3cn[nH]c3)c3c2CCO3)c1` [Example 7, 3-(((7-(1H-pyrazol-4-yl)-2,3-dihydrofuro[3,2-c]pyridin-4-yl)amino)methyl)-N-(2-methoxyethyl)benzamide] are no more than 3 nM and 3 to 30 nM.
`O=C(Nc1cccc(CNc2ncc(-c3cn[nH]c3)c3c2CCO3)c1)c1ncc(CN2CCCC2)s1` [Example 48, N-(3-(((7-(1H-pyrazol-4-yl)-2,3-dihydrofuro[3,2-c]pyridin-4-yl)amino)methyl)phenyl)-5-(pyrrolidin-1-ylmethyl)thiazole-2-carboxamide]: the Ki in assay [1], in assay [2], in assay [3] and in assay [4] was no more than 3 nM throughout.
For the compound `O=C(NCc1cncnc1)c1cccc(CNc2ncc(-c3cn[nH]c3)c3c2CCO3)c1` [Example 9, 3-(((7-(1H-pyrazol-4-yl)-2,3-dihydrofuro[3,2-c]pyridin-4-yl)amino)methyl)-N-(pyrimidin-5-ylmethyl)benzamide], the Ki in assay [1] and in assay [3] was 3 to 30 nM each time.
With `CN1CCc2cc(C(=O)Nc3cccc(CNc4ncc(-c5cn[nH]c5)c5c4CCO5)c3)ccc2C1` [Example 45, N-(3-(((7-(1H-pyrazol-4-yl)-2,3-dihydrofuro[3,2-c]pyridin-4-yl)amino)methyl)phenyl)-2-methyl-1,2,3,4-tetrahydroisoquinoline-6-carboxamide], the Ki in assay [1], in assay [2], in assay [3] and in assay [4] was no more than 3 nM in each case.
Consider `O=C(Nc1cccc(CNc2ncc(-c3cn[nH]c3)c3c2CCO3)c1)c1ccc2c(cnn2CCN2CCOCC2)c1` [Example 46, N-(3-(((7-(1H-pyrazol-4-yl)-2,3-dihydrofuro[3,2-c]pyridin-4-yl)amino)methyl)phenyl)-1-(2-morpholinoethyl)-1H-indazole-5-carboxamide], for which the Ki in assay [1], in assay [2], in assay [3] and in assay [4] was no more than 3 nM throughout.
With `CNC(=O)c1cccc(CNc2ncc(-c3cncs3)c3c2CCO3)c1` [Example A, N-Methyl-3-(((7-(thiazol-5-yl)-2,3-dihydrofuropyridin-4-yl)amino)methyl)benzamide, reference compound], the Ki in assay [1] and in assay [3] was greater than 30 nM each time.
`CNC(=O)c1cccc(CNc2ncc(-c3cnco3)c3c2CCO3)c1` [Example B, N-Methyl-3-(((7-(oxazol-5-yl)-2,3-dihydrofuro[3,2-c]pyridin-4-yl)amino)methyl)benzamide, reference compound]: the Ki is 3 to 30 nM in assay [1] and greater than 30 nM in assay [3].
On the same counts, the results for `O=C(NCc1cscn1)c1cccc(CNc2ncc(-c3cn[nH]c3)c3c2CCO3)c1` [Example 14, 3-(((7-(1H-pyrazol-4-yl)-2,3-dihydrofuro[3,2-c]pyridin-4-yl)amino)methyl)-N-(thiazol-4-ylmethyl)benzamide] are no more than 3 nM and no more than 3 nM.
Turning to `CN1CCc2nc(CNC(=O)c3cccc(CNc4ncc(-c5cn[nH]c5)c5c4CCO5)c3)sc2C1` [Example 29, 3-(((7-(1H-pyrazol-4-yl)-2,3-dihydrofuro[3,2-c]pyridin-4-yl)amino)methyl)-N-((5-methyl-4,5,6,7-tetrahydrothiazolo[5,4-c]pyridin-2-yl)methyl)benzamide], the figures for the Ki in assay [2] and in assay [4] were no more than 3 nM and 3 to 30 nM, respectively.
As for `O=C(NCc1ccccn1)c1cccc(CNc2ncc(-c3cn[nH]c3)c3c2CCO3)c1` [Example 4, 3-(((7-(1H-pyrazol-4-yl)-2,3-dihydrofuro[3,2-c]pyridin-4-yl)amino)methyl)-N-(pyridin-2-ylmethyl)benzamide], the Ki in assay [1] and in assay [3] was 3 to 30 nM throughout.
For the compound `CN(C)Cc1ccc(C(=O)Nc2cccc(CNc3ncc(-c4cn[nH]c4)c4c3CCO4)c2)cc1` [Example 35, N-(3-(((7-(1H-Pyrazol-4-yl)-2,3-dihydrofuro[3,2-c]pyridin-4-yl)amino)methyl)phenyl)-4-((dimethylamino)methyl)benzamide], the inhibition constant (Ki) in assay [2] and in assay [4] was no more than 3 nM each time.
Consider `Cc1ccc(CNC(=O)c2cccc(CNc3ncc(-c4cn[nH]c4)c4c3CCO4)c2)s1` [Example 25, 3-(((7-(1H-pyrazol-4-yl)-2,3-dihydrofuro[3,2-c]pyridin-4-yl)amino)methyl)-N-((5-methylthiophen-2-yl)methyl)benzamide], for which the Ki in assay [2] and in assay [4] was no more than 3 nM in each case.
Consider `CN(C)CCn1ncc2cc(C(=O)Nc3cccc(CNc4ncc(-c5cn[nH]c5)c5c4CCO5)c3)ccc21` [Example 43, N-(3-(((7-(1H-pyrazol-4-yl)-2,3-dihydrofuro[3,2-c]pyridin-4-yl)amino)methyl)phenyl)-1-(2-(dimethylamino)ethyl)-1H-indazole-5-carboxamide], for which the Ki in assay [1], in assay [2], in assay [3] and in assay [4] was no more than 3 nM throughout.
Take `CN1CCc2cc(C(=O)Nc3cccc(CNc4ncc(-c5cn[nH]c5)c5c4CCO5)c3)cnc2C1` [Example 51, N-(3-(((7-(1H-pyrazol-4-yl)-2,3-dihydrofuro[3,2-c]pyridin-4-yl)amino)methyl)phenyl)-7-methyl-5,6,7,8-tetrahydro-1,7-naphthyridine-3-carboxamide]: the Ki in assay [2] and in assay [4] was no more than 3 nM each time.
